Source: article PMC8398451, “Molecular Engineering of Curcumin, an Active Constituent of Curcuma longa L. (Turmeric) of the Family Zingiberaceae with Improved Antiproliferative Activity” (Plants, 2021)
Like-named read-outs stand apart in the source and are kept apart here.

Legend:
[1] = system: EKVX; test: NCI antiproliferative SRB assay, Non-Small Cell Lung Cancer panel; format: cell-based, Human
[2] = system: HOP-92; test: as above; format: cell-based
[3] = system: NCI-H226; test: as above; format: cell-based, Human
[4] = system: NCI-H23; test: as above; format: cell-based, Human
[5] = system: NCI-H522; test: as above; format: cell-based, Human
[6] = system: COLO 205; test: NCI antiproliferative SRB assay, Colon Cancer panel; format: cell-based, Human
[7] = system: HCT-15; test: as above; format: cell-based, Human
[8] = system: SW-620; test: as above; format: cell-based, Human
[9] = system: SF-539; test: NCI antiproliferative SRB assay, CNS Cancer panel; format: cell-based, Human
[10] = system: MALME-3M; test: NCI antiproliferative SRB assay, Melanoma panel; format: cell-based, Human
[11] = system: MDA-MB-435; test: NCI antiproliferative SRB assay, Melanoma panel; format: cell-based
[12] = system: SK-MEL-28; test: NCI antiproliferative SRB assay, Melanoma panel; format: cell-based, Human
[13] = system: OVCAR-3; test: NCI antiproliferative SRB assay, Ovarian Cancer panel; format: cell-based, Human
[14] = system: OVCAR-4; test: as above; format: cell-based, Human
[15] = system: NCI/ADR-RES; test: as above; format: cell-based, Human
[16] = system: SK-OV-3; test: as above; format: cell-based, Human
[17] = system: A498; test: NCI antiproliferative SRB assay, Renal Cancer panel; format: cell-based, Human
[18] = system: SN 12C; test: as above; format: cell-based, Human
[19] = system: MCF7; test: NCI antiproliferative SRB assay, Breast Cancer panel; format: cell-based, Human
[20] = system: T-47D; test: as above; format: cell-based, Human
[21] = system: Colon Cancer cell line panel; test: NCI antiproliferative assay, panel summary; format: cell-based, Human
[22] = system: Renal Cancer cell line panel; test: NCI antiproliferative assay, panel summary; format: cell-based, Human
[23] = system: Breast Cancer cell line panel; test: NCI antiproliferative assay, panel summary; format: cell-based, Human
[24] = system: 60 NCI cancer cell lines; test: NCI antiproliferative assay, summary over all lines; format: cell-based; conditions: for GI50: Homo sapiens, 5-dose assay
[25] = molecular target: T1, EGFR (Homo sapiens, UniProt P00533); test: Spectrophotometric assay for EGFR tyrosine kinase inhibition in A431 cells; format: cell-based; conditions: absorbance at 540 nm
T1 construct: tested for anti-EGFR activity in human A431 cells, which express high levels of EGFR protein; endogenous in cells; host or cells: human A431 cells

[26] = Homo sapiens, 5-dose 0.01-100 µM
[27] = Homo sapiens, 5-dose 0.01-100 µM, read-out: LC50 (the source's name)
[28] = Homo sapiens, T47D, 5-dose 0.01-100 µM
[29] = Homo sapiens, 5-dose assay, read-out: Sub Panel MID b (mean GI50 of panel)
[30] = mean over cell lines, one dose 10 µM

T1 sequence (P00533 25-1210): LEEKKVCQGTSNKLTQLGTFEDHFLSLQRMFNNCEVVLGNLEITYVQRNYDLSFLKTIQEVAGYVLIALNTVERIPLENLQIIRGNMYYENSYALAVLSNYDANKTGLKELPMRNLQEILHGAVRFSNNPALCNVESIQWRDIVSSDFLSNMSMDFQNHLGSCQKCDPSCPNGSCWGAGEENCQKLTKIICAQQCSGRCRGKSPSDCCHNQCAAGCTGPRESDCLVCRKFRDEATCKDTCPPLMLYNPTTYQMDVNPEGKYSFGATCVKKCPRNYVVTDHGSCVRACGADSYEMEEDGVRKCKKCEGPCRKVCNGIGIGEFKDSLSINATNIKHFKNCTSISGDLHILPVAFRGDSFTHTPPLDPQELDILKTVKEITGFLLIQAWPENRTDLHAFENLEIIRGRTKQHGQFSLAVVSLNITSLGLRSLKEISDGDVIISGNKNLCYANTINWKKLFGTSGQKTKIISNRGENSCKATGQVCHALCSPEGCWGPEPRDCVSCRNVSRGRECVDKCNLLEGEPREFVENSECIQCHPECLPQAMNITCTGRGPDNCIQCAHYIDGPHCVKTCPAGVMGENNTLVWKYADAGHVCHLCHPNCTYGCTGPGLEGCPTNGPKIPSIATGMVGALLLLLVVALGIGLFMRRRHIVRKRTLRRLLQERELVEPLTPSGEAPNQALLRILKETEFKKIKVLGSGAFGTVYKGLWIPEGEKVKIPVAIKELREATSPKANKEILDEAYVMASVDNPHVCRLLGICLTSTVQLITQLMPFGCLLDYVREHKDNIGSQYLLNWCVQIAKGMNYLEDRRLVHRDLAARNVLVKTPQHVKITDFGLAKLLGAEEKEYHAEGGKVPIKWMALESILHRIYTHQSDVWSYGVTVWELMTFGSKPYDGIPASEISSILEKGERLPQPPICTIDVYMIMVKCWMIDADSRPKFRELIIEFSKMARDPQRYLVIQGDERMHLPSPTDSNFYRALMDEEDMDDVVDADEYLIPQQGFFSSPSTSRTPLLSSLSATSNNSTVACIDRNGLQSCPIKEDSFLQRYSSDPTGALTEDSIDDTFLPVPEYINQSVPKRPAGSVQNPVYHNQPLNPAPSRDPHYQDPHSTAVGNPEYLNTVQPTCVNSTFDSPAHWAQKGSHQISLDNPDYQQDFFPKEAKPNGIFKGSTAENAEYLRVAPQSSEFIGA

SMILES: COc1cc(/C=C/c2cc(/C=C/c3ccc(O)c(OC)c3)n(C(=O)Nc3ccc(C(F)(F)F)cc3)n2)ccc1O [3c]
- TGI ([1]; 5-dose 0.01-100 µM): 38.4 µM
- GI50 [1, 26]: 3.22 µM
- CC50 [1, 27]: > 100 µM
- %GI ([1]; one dose 10 µM): 38.75%
- GP (growth percent) ([1]; one dose 10 µM): 61.25
- TGI ([2]; 5-dose 0.01-100 µM): 6.79 µM
- GI50 ([2]; Homo sapiens): 2350 nM
- CC50 [2, 27]: > 100 µM
- TGI ([3]; 5-dose 0.01-100 µM): 27.6 µM
- GI50 [3, 26]: 7.29 µM
- CC50 [3, 27]: 91.7 µM
- %GI ([3]; one dose 10 µM): 17.33%
- GP (growth percent) ([3]; one dose 10 µM): 82.67
- TGI ([4]; 5-dose 0.01-100 µM): 6.48 µM
- GI50 [4, 26]: 2130 nM
- CC50 [4, 27]: > 100 µM
- %GI ([4]; one dose 10 µM): 48.71%
- GP (growth percent) ([4]; one dose 10 µM): 51.29
- TGI ([5]; 5-dose 0.01-100 µM): 4.65 µM
- GI50 [5, 26]: 1780 nM
- CC50 [5, 27]: 40.8 µM
- %GI ([5]; one dose 10 µM): 92.68%
- GP (growth percent) ([5]; one dose 10 µM): 7.32
- TGI ([6]; 5-dose 0.01-100 µM): 4.50 µM
- GI50 [6, 26]: 2050 nM
- CC50 [6, 27]: 9.91 µM
- %GI ([6]; one dose 10 µM): 48.73%
- GP (growth percent) ([6]; one dose 10 µM): 51.27
- TGI ([7]; 5-dose 0.01-100 µM): 9.63 µM
- GI50 [7, 26]: 2690 nM
- CC50 [7, 27]: > 100 µM
- %GI ([7]; one dose 10 µM): 74.49%
- GP (growth percent) ([7]; one dose 10 µM): 25.51
- TGI ([8]; 5-dose 0.01-100 µM): 5.90 µM
- GI50 [8, 26]: 2560 nM
- CC50 [8, 27]: 33.6 µM
- %GI ([8]; one dose 10 µM): 82.00%
- GP (growth percent) ([8]; one dose 10 µM): 18.00
- TGI ([9]; 5-dose 0.01-100 µM): 7.45 µM
- GI50 [9, 26]: 2370 nM
- CC50 [9, 27]: 56 µM
- %GI ([9]; one dose 10 µM): 70.99%
- GP (growth percent) ([9]; one dose 10 µM): 29.01
- TGI ([10]; 5-dose 0.01-100 µM): 8.40 µM
- GI50 [10, 26]: 2890 nM
- CC50 [10, 27]: 32.6 µM
- %GI ([10]; one dose 10 µM): 47.73%
- GP (growth percent) ([10]; one dose 10 µM): 52.27
- TGI ([11]; 5-dose 0.01-100 µM): 7.06 µM
- GI50 ([11]; Homo sapiens): 2350 nM
- CC50 [11, 27]: 33.4 µM
- %GI ([11]; one dose 10 µM): 72.15%
- GP (growth percent) ([11]; one dose 10 µM): 27.85
- TGI ([12]; 5-dose 0.01-100 µM): 5.90 µM
- GI50 [12, 26]: 2190 nM
- CC50 [12, 27]: 23.9 µM
- %GI ([12]; one dose 10 µM): 42.01%
- GP (growth percent) ([12]; one dose 10 µM): 57.99
- TGI ([13]; 5-dose 0.01-100 µM): 26.7 µM
- GI50 [13, 26]: 3.41 µM
- CC50 [13, 27]: > 100 µM
- %GI ([13]; one dose 10 µM): 86.24%
- GP (growth percent) ([13]; one dose 10 µM): 13.76
- TGI ([14]; 5-dose 0.01-100 µM): 52.7 µM
- GI50 [14, 26]: 3.51 µM
- CC50 [14, 27]: > 100 µM
- %GI ([14]; one dose 10 µM): 23.29%
- GP (growth percent) ([14]; one dose 10 µM): 76.71
- TGI ([15]; 5-dose 0.01-100 µM): >100 µM
- GI50 [15, 26]: 3.51 µM
- CC50 [15, 27]: > 100 µM
- %GI ([15]; one dose 10 µM): 48.35%
- GP (growth percent) ([15]; one dose 10 µM): 51.65
- TGI ([16]; 5-dose 0.01-100 µM): 66.7 µM
- GI50 [16, 26]: 4.02 µM
- CC50 [16, 27]: > 100 µM
- %GI ([16]; one dose 10 µM): 33.91%
- GP (growth percent) ([16]; one dose 10 µM): 66.09
- GI50 [17, 26]: 5.81 µM
- CC50 [17, 27]: 57.3 µM
- %GI ([17]; one dose 10 µM): -8.03%
- GP (growth percent) ([17]; one dose 10 µM): 108.03
- TGI ([18]; 5-dose 0.01-100 µM): 9.90 µM
- GI50 ([18]; Homo sapiens, SN12C, 5-dose 0.01-100 µM): 2730 nM
- CC50 ([18]; Homo sapiens, SN12C, 5-dose 0.01-100 µM, read-out: LC50 (the source's name)): > 100 µM
- %GI ([18]; one dose 10 µM): 63.08%
- GP (growth percent) ([18]; one dose 10 µM): 36.92
- TGI ([19]; 5-dose 0.01-100 µM): 10.7 µM
- GI50 [19, 26]: 1970 nM
- CC50 [19, 27]: 72 µM
- %GI ([19]; one dose 10 µM): 77.08%
- GP (growth percent) ([19]; one dose 10 µM): 22.92
- TGI ([20]; 5-dose 0.01-100 µM): 39.0 µM
- GI50 [20, 28]: 2810 nM
- LC50 (lethal concentration, 50% cell kill) [20, 28]: > 100 µM
- %GI ([20]; one dose 10 µM): 52.60%
- GP (growth percent) ([20]; one dose 10 µM): 47.40
- Mean % GI ([21]; 10 µM): 73.05%
- Selectivity Ratio (MID a:MID b) ([21]; 5-dose assay): 1.31
- GI50 [21, 29]: 2170 nM
- GI50 ([22]; Homo sapiens, read-out: Sub Panel MID b (mean GI50 of panel)): 3.06 µM
- Mean % GI ([22]; Renal Cancer panel, 10 µM): 46.37%
- Selectivity Ratio (MID a:MID b) ([22]; Renal Cancer panel, 5-dose assay): 0.93
- Mean % GI ([23]; 10 µM): 60.04%
- Selectivity Ratio (MID a:MID b) ([23]; 5-dose assay): 0.99
- GI50 [23, 29]: 2860 nM
- GI50 ([24]; read-out: GI50 values, range over cell lines): 1480 to 7290 nM
- GI50 ([24]; read-out: MID a (mean GI50 of 60 NCI cancer cell lines)): 2840 nM
- Mean % GI [24, 30]: 59.26%
- Mean GP [24, 30]: 40.74
- IC50 [25]: 4.18 µM
